For assay [1] the following is noted: Davis et al. 1983; cited from earlier work.
Assay [2] has as its system muscarinic binding site. In words: RCMD screening assay: inhibition of radiolabeled cis-methyldioxolane (muscarinic agonist) binding in rat cerebral cortex tissue. The note with it: for % Inhib. RCMD: @ 10^-7 M; for IC50: rat cerebral cortex, radiolabeled cis-methyldioxolane. The method, then:
Similarly, in the RCMD screening assay, described more fully by T. W. Vickeroy et al., J. Pharmacol. and Exp. Ther., 229 (3): 747 (1984), rat cerebral cortex tissue was treated with radiolabeled cis-methyldioxolane, a known muscarinic binding site agonist. The percent inhibition at given concentrations or concentrations of test compounds required to inhibit 50% of the binding of this muscarinic agonist were then determined.

For assay [3], the system named is muscarinic binding site. In words: RQNB screening assay: inhibition of radiolabeled quinuclidinyl benzilate (muscarinic antagonist) binding in rat cerebral cortex tissue. Particulars: for % Inhib. RQNB: @ 10^-6 M; for IC50: rat cerebral cortex, radiolabeled quinuclidinyl benzilate.
Assay [4] relates to laboratory rats. As to the kind of experiment: Scopolamine induced swimming test (SIS). In kind it is in vivo, rat. The note with it: for minimal effective dose: rat, read-out: Minimal Effective Dose for Reversal of Scopolamine-Induced Swimming Hyperactivity; for Reversal of scopolamine-induced swimming hyperactivity: result in words. The method, then:
In the scopolamine induced swimming test (SIS), the ability of representative compounds of the present invention to reverse the hyperactive swimming behavior of laboratory rats given scopolamine was assessed. In this test, untreated rats will generally swim between 20 to 30 meters during a five minute test period. […] The effect of scopolamine is centrally mediated; the ability of a test compound to reverse the hyperactive swimming behavior induced by scopolamine is thus a measure of the central cholinergic activity of the compound.

Assay [5] concerns male Swiss-Webster mice. In words: Antiwrithing (AW) test, acetic acid induced writhing. The assay is classed as in vivo. Particulars: ip; intraperitoneal dosing; mouse; acetic acid 0.6%; read-out: ED50 (dose necessary to suppress writhing by 50% relative to vehicle controls). The method, then:
The antiwrithing (AW) test provides preliminary assessment of compounds with potential analgesic activity. The test is performed with male Swiss-Webster mice. Compounds are administered in aqueous 0.2% methylcellulose or other appropriate vehicles in volumes of 10 ml/kg. Dosages represent active moiety.
Acetic acid (0.6%, 10 ml/kg) is injected intraperitoneally after administration of the compound. writhing movements are counted for five minutes starting seven minutes after the acetic acid injection. Data are expressed as ED50 values, where the ED50 is the dose necessary to suppress writhing by 50% relative to vehicle controls. ED50 values are calculated by nonlinear regression analysis.

The test system of assay [6] is patients clinically diagnosed as having presenile primary degenerative dementia. Particulars: double blind study; Christie et al. 1981; cited from earlier work.
Assay [7] deals with aged humans and non-human primates with decreased cognition. Particulars: result in words; cited from earlier work.

Like-named read-outs stand apart in the source and are kept apart here.

Consider `Nc1ccncc1N` [3,4-diaminopyridine], for which, in assay [1], the Age-related cognitive deficits entry is “ameliorate age-related cognitive deficits”.

Turning to `CCN1CCC=C(C(C)=NO)C1` [Ethyl 3-Methyl, 1-(1-Ethyl-1,2,5,6-tetrahydro-3-pyridinyl)ethanone oxime], the “% Inhib. RCMD” value in assay [2] stood at 21%. Besides, the “% Inhib. RQNB” value in assay [3] turned out to be 23%.

In the case of `CC(=NO)C1=CCCNC1` [Hydrogen 3-Methyl, 1-(1,2,5,6-Tetrahydro-3-pyridinyl)ethanone oxime], the minimal effective dose (commonly the lowest level tested that produced the effect sought) in assay [4] (sc, Subcutaneous) stood at 3.2 mg/kg. The “% Inhib. RCMD” value in assay [2] turned out to be 85%. Moreover, in assay [3], the “% Inhib. RQNB” value is given as 24%.

Regarding `CC(C)/C(=N\O)C1=CCCN(C)C1` [Methyl 3-(1-Methylethyl) (anti), 2-Methyl-1-(1,2,5,6-tetrahydro-1-methyl-3-pyridinyl)-1-propanone oxime], the “% Inhib. RCMD” value in assay [2] is given as 10%. For the same molecule, the “% Inhib. RQNB” value in assay [3] was 10%.

Take `CC(C)/C(=N/O)C1=CCCN(C)C1` [Methyl 3-(1-Methylethyl) (syn), 2-Methyl-1-(1,2,5,6-tetrahydro-1-methyl-3-pyridinyl)-1-propanone oxime]: in assay [2], the “% Inhib. RCMD” value is on record as 43%. The “% Inhib. RQNB” value in assay [3] is on record as 35%.

With `C#CCCC(=NO)C1=CCCN(C)C1` [Methyl 3-(CH2 CH2 C CH)], the IC50 (as a rule, the concentration at which inhibition is half-maximal) in assay [2] turned out to be 7 nM; in assay [3], 1000 nM.

On to `COCCCC(=NO)C1=CCCN(C)C1` [Methyl 3-(CH2 CH2 CH2 OCH3), 4-Methoxy-1-(1,2,5,6-tetrahydro-1-methyl-3-pyridinyl)-1-butanone Oxime], for which the minimal effective dose in assay [4] (sc, Subcutaneous) worked out at 32 mg/kg. Further, the IC50 came to 30 nM in assay [2] and 2500 nM in assay [3].

As for `C=CCCC(=NO)C1=CCCN(C)C1` [Methyl 3-(CH2 CH2 CHCH2), 1-(1,2,5,6-Tetrahydro-1-methyl-3-pyridinyl)-4-penten-1-one oxime], the minimal effective dose in assay [4] (sc, Subcutaneous) came to 32 mg/kg. The IC50 in assay [2] stood at 40 nM; in assay [3], 600 nM.

As for `CN1CCC=C(C(CCc2ccccc2)=NO)C1` [Methyl 3-(CH2 CH2Ph), 3-Phenyl-1-(1,2,5,6-tetrahydro-1-methyl-3-pyridinyl)-1-propanone oxime], the minimal effective dose in assay [4] (sc, Subcutaneous) worked out at 32 mg/kg.

With `CN1CCC=C(C(COCc2ccccc2)=NO)C1` [Methyl 3-(CH2 OCH2 Ph)], the “% Inhib. RCMD” value in assay [2] stood at 30%. For the same molecule, in assay [3], the “% Inhib. RQNB” value is recorded as 38%.

`CCC(=NO)C1=CCCN(C)C1` [Methyl 3-Ethyl, 1-(1,2,5,6-Tetrahydro-1-methyl-3-pyridinyl)-1-propanone oxime]: in assay [4] (sc, Subcutaneous), the minimal effective dose came to 32 mg/kg. For the same molecule, the half-maximal inhibitory concentration (IC50) in assay [2] is 50 nM; in assay [3], 2000 nM.

Consider `CC(=NO)C1=CCCN(C)C1` [Methyl 3-Methyl, 1-(1,2,5,6-Tetrahydro-1-methyl-3-pyridinyl)-ethanone oxime], for which the minimal effective dose in assay [4] (sc, Subcutaneous) is 3.2 mg/kg. Also, the ED50 – broadly, the dose at which the effect has come halfway, by size or by number of responders – in assay [5] worked out at 1.1 mg/kg. Besides, the IC50 in assay [2] amounted to 19 nM; in assay [3], 4650 nM.

As for `CN1CCC=C(C(=NO)c2ccccc2)C1` [Methyl 3-Phenyl, Phenyl(1,2,5,6-tetrahydro-1-methyl-3-pyridinyl)methanone oxime], in assay [2], the “% Inhib. RCMD” value was found to be 39%. In addition, the “% Inhib. RQNB” value in assay [3] came to 51%.

Consider `CN1CCC=C(C(CCc2ccccc2)=NO)C1` [Methyl 3-Phenylmethyl], for which the “% Inhib. RCMD” value in assay [2] stood at 66%. Moreover, the “% Inhib. RQNB” value in assay [3] came out at 86%.

Consider `CCCCC(=NO)C1=CCCN(C)C1` [Methyl 3-n-Butyl, 1-(1,2,5,6-Tetrahydro-1-methyl-3-pyridinyl)-1-pentanone oxime], for which the minimal effective dose in assay [4] (sc, Subcutaneous) was 32 mg/kg. Further, the 50% inhibitory concentration (IC50) is 20 nM in assay [2] and 300 nM in assay [3].

In the case of `CC(=NO)C1=CCN(C)CC1` [Methyl 4-Methyl], in assay [4] (sc, Subcutaneous), the minimal effective dose is 3.2 mg/kg. Besides, the figures for the IC50 in assay [2] and in assay [3] were 490 nM and 10000 nM, respectively.

On to `CN1CCC=C(C=NO)C1` [Methyl Hydrogen, 1,2,5,6-Tetrahydro-1-methyl-3-pyridinecarboxaldehyde oxime], for which the minimal effective dose in assay [4] (sc, Subcutaneous) came out at 32 mg/kg. Moreover, the “% Inhib. RCMD” value in assay [2] was determined as 22%. Further, the “% Inhib. RQNB” value in assay [3] turned out to be 8%.

For the molecule `COC(=O)C1=CCCN(C)C1` [arecoline, methyl ester of 1,2,5,6-tetra-hydro-1-methyl-3-pyridinecarboxylic acid, reference compound], the “Reversal of scopolamine-induced swimming hyperactivity” value in assay [4] is “can be reversed”. Besides, the “Test of picture recognition” value in assay [6] is listed as “Significant improvement”.

In the case of `CCCN1CCC=C(C(CCc2ccccc2)=NO)C1` [n-Propyl 3-(CH2 CH2Ph), 3-Phenyl-1-(1,2,5,6-tetrahydro-1-propyl-3-pyridinyl)-1-propanone oxime], the minimal effective dose in assay [4] (Oral) was found to be 3.2 mg/kg.

With `CCCN1CCC=C(C(CCc2ccccc2)=NO)C1` [n-Propyl 3-Phenylmethyl], in assay [2], the “% Inhib. RCMD” value was 3%. In assay [3], the “% Inhib. RQNB” value worked out at 63%.

As to `CNC(=O)Oc1ccc2c(c1)[C@]1(C)CCN(C)[C@@H]1N2C` [physostigmine, reference compound], the “Reversal of scopolamine-induced swimming hyperactivity” value in assay [4] is recorded as “can be reversed”. Besides, the “Memory in aged humans and non-human primates with decreased cognition” value in assay [7] was “improved memory”.

`CN1[C@@H]2C[C@@H](OC(=O)[C@H](CO)c3ccccc3)C[C@H]1[C@@H]1O[C@@H]12` [scopolamine, reference compound]: in assay [4] (scopolamine 0.1 mg/kg, five minute test period), the “Increase of swimming distance above base-line” value is recorded as 75-125%.
